Results: PMC6890677, “Surface Grafted MSI-78A Antimicrobial Peptide has High Potential for Gastric Infection Management” (Scientific Reports, 2019)
Where no end group is shown, it is not given here.

How the values were obtained:
[1] = system: H. pylori SS1; settings: H. pylori SS1 (mouse-adapted); MHB + 10% FBS, 37 °C, microaerophilic, 72 h; 2 replicates in 3 independent experiments
Method: (§1) H. pylori human strains J99 and 26695 (provided by Department of Medical Biochemistry and Biophysics, Umeå University, Sweden), NCTC 11637 (ATCC 43504) and mouse-adapted SS1 strain (provided by Unité de Pathogenèse de Helicobacter, Institut Pasteur, France) were grown following the standard procedure. Briefly, H. pylori was cultured in Blood Agar (BA; Oxoid) supplemented with 10% of defibrinated horse blood (Probiologica) and with an antibiotic cocktail (polymyxin B, vancomycin, amphotericin B, trimethoprim; all from Sigma-Aldrich) under microaerophilic conditions (<5% O2; GenBox System, BioMérieux) at 37 °C for 48 h. Afterwards, some colonies were streaked onto fresh BA medium and kept in culture in the same conditions for another 48 h. Subsequently, bacterial inoculum was adjusted to 0.03 optical density at 600 nm (OD600), which corresponds to approximately 1 × 10^7 colony forming units (CFUs)/mL[48]. Initial inoculum was confirmed by inoculation of 10 μL drops of the bacterial suspension onto BA and CFUs were counted after 5 days of incubation in the same above-mentioned settings.
(§2) The MICs of the AMPs (Table 1) against H. pylori strains were determined using the microbroth dilution method in Mueller Hinton Broth (MHB) supplemented with 10% of inactivated Fetal Bovine Serum (FBS; Gibco) and in accordance with the Clinical Laboratory Standards Institute (CLSI) guidelines. Briefly, AMPs were diluted in 0.01% of acetic acid with 0.2% Bovine Serum Albumin (BSA; Sigma) to allow AMP protonation and avoid its aggregation, respectively, following an already established protocol. The selected AMPs concentrations ranged from 2 µg/mL up to 512 µg/mL. Incubation was performed at 37 °C in microaerophilic conditions for 72 h. The MIC was defined as the first AMP concentration that prevented visible (naked eye) bacterial growth. Two replicates of each AMP concentration were performed in three independent experiments.

[2] = system: H. pylori 26695; settings: MHB + 10% FBS, 37 °C, microaerophilic, 72 h, 2 replicates in 3 independent experiments
Method: as §1, §2

[3] = system: H. pylori NTCC 11637; settings: MHB + 10% FBS, 37 °C, microaerophilic, 72 h, 2 replicates in 3 independent experiments
Method: as §1, §2

[4] = system: H. pylori J99; settings: MHB + 10% FBS, 37 °C, microaerophilic, 72 h, 2 replicates in 3 independent experiments
Method: as §1, §2

[5] = system: H. pylori SS1; format: cell-based, Helicobacter pylori; settings: H. pylori SS1 (mouse-adapted); viability of the inoculum reduced by ≥99.9%; CFU on BA after 5 days; 2 replicates in 3 independent experiments
Method: as §1
(§3) The MBC was defined as the lowest AMP concentration that was able to diminish the viability of the initial bacterial inoculum by ≥99.9%. MBC determination followed the CLSI guidelines[49] but briefly, a 50 µL sample was taken from the first three lowest concentrations where no bacterial growth was observed (concentration corresponding to the MIC), serially diluted in PBS until 10^−6 and then spotted on BA. After 5 days of incubation at 37 °C in microaerophilic environment, the CFUs/mL were calculated. Two replicates of each AMP concentration were performed in three independent experiments.

[6] = system: H. pylori 26695; settings: viability of the inoculum reduced by ≥99.9%, CFU on BA after 5 days, 2 replicates in 3 independent experiments
Method: as §1, §3

[7] = system: H. pylori NTCC 11637; settings: viability of the inoculum reduced by ≥99.9%, CFU on BA after 5 days, 2 replicates in 3 independent experiments
Method: as §1, §3

[8] = system: H. pylori J99; settings: viability of the inoculum reduced by ≥99.9%, CFU on BA after 5 days, 2 replicates in 3 independent experiments
Method: as §1, §3

[9] = system: S. epidermidis; assay: MIC of AMP in solution, adhesion control strain

| Sequence | MIC [1] [mg/L] | MIC [2] [mg/L] | MIC [3] [mg/L] | MIC [4] [mg/L] | MBC [5] [mg/L] | MBC [6] [mg/L] | MBC [7] [mg/L] | MBC [8] [mg/L] | MIC [9] [mg/L] |
| --- | --- | --- | --- | --- | --- | --- | --- | --- | --- |
| GLLRASSVWGRKYYVDLAGCAKA [Odorranain-HP] | >512 | >512 | >512 | >512 | >512 | >512 | >512 | >512 |  |
| GIGKFLKKAKKFGKAFVKILKK [MSI-78] | 128 | 64 | 256 | 256 | >512 | 128 | >512 | >512 |  |
| GIGKFLKKAKKFAKAFVKILKK [MSI-78A] | 128 | 16 | 128 | 64 | 256 | 32 | 256 | 128 | 2 |
